Laboratory results published in ChEMBL document CHEMBL1124710, “Studies on Ca2+ channel antagonists. A 2-diazo-3,3,3-trifluoropropionamide derivative related to verapamil as a potential photoaffinity probe” (J Med Chem, 1990).

What was measured:
[1] = species on record: Rattus norvegicus; assay: Effective concentration for negative inotropic effect in rat myocardial ventricular strips; type: functional; conditions: Cardiac ventricle
[2] = Binding affinity to displace 0.4 nM of [3H]- gallopamil in rat myocardial membranes; type: cell membranes, Myocardium, Membrane

Compound | EC50 [1] | Ki [2]
COc1ccc(C(C#N)(CCCN(C)CCc2ccc(N(C)C(=O)C([N+]#N)C(F)(F)F)cc2)C(C)C)cc1OC (centres undefined) | 105 nM | 37.6 nM
COc1ccc(CCN(C)CCCC(C#N)(c2cc(OC)c(OC)c(OC)c2)C(C)C)cc1OC (centres undefined) [GALLOPAMIL] | 21.8 nM | 15.5 nM
